ChEMBL document CHEMBL1151652, “Constituents of Erysimum inconspicuum. Two sulfur-containing lactone compounds” (1985)
In brackets after ≈: the same amount, converted by molar mass.

tested on: KB; assay: Cytotoxicity against human KB cells; format: functional; conditions: read-out: ED50 (the source's name)

Question: Which EC50 does the source give for CS(=O)(=O)CC[C@H]1CCC(=O)O1 [ERYSULFONE] here?
Answer: 21 µg/mL (≈ 109 µM)

Question: Which EC50 does the source give for C[S+]([O-])CC[C@H]1CCC(=O)O1 (stereo partly drawn) [ERYSULFOXIDE] here?
Answer: 2.3 µg/mL (≈ 13.1 µM)

Question: How did the EC50 turn out when C[C@]12CC[C@H]3[C@@H](CC[C@]4(O)C[C@@H](O)CC[C@]34C=O)[C@@]1(O)CC[C@@H]2C1=CC(=O)OC1 [STROPHANTHIDIN] was run?
Answer: 0.44 µg/mL (≈ 1.09 µM)
